We go through 21 molecules from US10793575B2, “Oxoisoquinoline derivatives” (CARNA BIOSCIENCES, INC., priority 2016, dated 2020).

dephosphorylated BTK, sequence (Q06187 whole entry): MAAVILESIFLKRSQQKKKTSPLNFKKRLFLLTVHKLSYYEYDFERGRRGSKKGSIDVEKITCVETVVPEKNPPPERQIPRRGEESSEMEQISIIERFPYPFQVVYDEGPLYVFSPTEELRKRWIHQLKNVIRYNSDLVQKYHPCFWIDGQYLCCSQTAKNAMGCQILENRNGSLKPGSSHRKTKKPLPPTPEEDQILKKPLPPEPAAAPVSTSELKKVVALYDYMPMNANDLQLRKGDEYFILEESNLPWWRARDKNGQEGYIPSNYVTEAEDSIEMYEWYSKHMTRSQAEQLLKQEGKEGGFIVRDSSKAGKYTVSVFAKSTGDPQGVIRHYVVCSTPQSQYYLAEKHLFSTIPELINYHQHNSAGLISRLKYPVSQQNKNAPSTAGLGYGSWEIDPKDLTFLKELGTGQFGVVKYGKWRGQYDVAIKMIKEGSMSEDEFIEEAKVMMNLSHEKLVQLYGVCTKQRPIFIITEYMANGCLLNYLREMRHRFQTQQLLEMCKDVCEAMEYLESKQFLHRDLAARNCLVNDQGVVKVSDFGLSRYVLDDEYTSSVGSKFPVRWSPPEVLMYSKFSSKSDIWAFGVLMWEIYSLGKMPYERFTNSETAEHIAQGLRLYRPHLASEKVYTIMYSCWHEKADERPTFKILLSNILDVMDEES

One assay addresses dephosphorylated BTK (Homo sapiens (Human), UniProt Q06187). Nature of the assay: BTK Activity Inhibition Test (mobility shift assay). The class given is biochemical. The settings on record: 200 μM ATP, read-out: Inhibitory Activity on BTK. As for the experimental part: Dephosphorylated BTK was obtained by adding λ protein phosphatase (manufactured by New England BioLabs Inc., Code No. P0753S) and MnCl2 at 10 U/μg and 2 mM, respectively, to biotinylated BTK protein BTN-BTK (Manufactured by Carna Biosciences, Inc.) enzyme solution, reacting the mixture at 4° C. overnight, and removing of λ protein phosphatase by anti […]-tag antibody agarose gel chromatography, followed by buffer exchange using a 10DG Desalting Column.
The kinase activity was measured using QuickScout Screening Assist (trade mark) MSA (commercially available kit manufactured by Carna Biosciences, Inc.) by mobility shift assay (MSA) method. The substrate of the kinase reaction was an FITC-labeled SRCtide peptide included in the kit. An assay buffer [20 mM HEPES, 0.01% Triton X-100 (Trade mark), 2 mM dithiothreitol, pH 7.5] was used and adjusted at 4 μM substrate, 20 mM MgCl2 and 200 μm ATP to obtain a substrate mixture solution. The enzyme solution was also prepared by diluting the dephosphorylated BTK to 0.46 nM using the assay buffer. The 10 mM solution of the test compound in DMSO was further diluted with DMSO to 10 levels of the concentration (0.00003 mM, 0.0001 mM, 0.0003 mM, 0.001 mM, 0.003 mM, 0.01 mM, 0.03 mM, 0.1 mM, 0.3 mM, 1 mM), each of which was subjected to a 25-fold dilution with the assay buffer to obtain the drug solutions (4% DMSO solutions). 5 μL of the drug solution or a control solution (4% DMSO-assay buffer), 5 μL of the substrate mixture solution, and 10 μL of the enzyme solution were mixed in the wells of a polypropylene 384-well plate and allowed to react at room temperature for 2 hours, and then quenched by adding 60 μL of the termination buffer included in the kit. Subsequently, the quantities of the substrates (S) and the phosphorylated substrate (P) in the reaction solution were measured using LabChip EZ Reader II system (manufactured by Caliper Life Sciences) according to the protocol of the assay kit.
The heights of the peaks of the isolated substrate and the phosphorylated substrate were represented as S and P, respectively, and a blank which contained the assay buffer instead of the enzyme solution was also measured.
The inhibition rate (%) of the test compound was calculated according to the following equation; Inhibition rate (%)=(1−(C−A)/(B−A))×100 • wherein, A, B and C represent P/(P+S) of the blank well, P/(P+S) of the control well and P/(P+S) of the compound-containing well, respectively.
The IC50 value was calculated via a regression analysis of the inhibition rate (%) and the test compound concentration (logarithmic value).
`Nc1nc(-c2cccc(-n3ccc4cc(C5CC5)cc(F)c4c3=O)c2CO)c2c(-c3ccccc3)c[nH]c2n1` [Example 28, 2-[3-(2-amino-5-phenyl-7H-pyrrolo[2,3-d]pyrimidin-4-yl)-2-(hydroxymethyl)phenyl]-6-cyclopropyl-8-fluoroisoquinolin-1(2H)-one]: the IC50 is under 10 nM.
As for `Cc1n[nH]c2nc(N)nc(-c3cccc(-n4ccc5cc(C6CC6)cc(F)c5c4=O)c3CO)c12` [Example 10, 2-[3-(6-amino-3-methyl-1H-pyrazolo[3,4-d]pyrimidin-4-yl)-2-(hydroxymethyl)phenyl]-6-cyclopropyl-8-fluoroisoquinolin-1(2H)-one], the IC50 is under 10 nM.
Turning to `Nc1nc(-c2cccc(-n3ccc4cc(C5CC5)cc(F)c4c3=O)c2CO)c2nc[nH]c2n1` [Example 4, 2-[3-(2-amino-9H-purin-6-yl)-2-(hydroxymethyl)phenyl]-6-cyclopropyl-8-fluoroisoquinolin-1(2H)-one], the IC50 is under 10 nM.
As to `COc1ccccc1-c1nc2c(-c3cccc(-n4ccc5cc(C6CC6)cc(F)c5c4=O)c3CO)nc(N)nc2[nH]1` [Example 24, 2-{3-[2-amino-8-(2-methoxyphenyl)-9H-purin-6-yl]-2-(hydroxymethyl)phenyl}-6-cyclopropyl-8-fluoroisoquinolin-1(2H)-one], the IC50 is under 10 nM.
As for `Cc1cc2c(-c3cccc(-n4ccc5cc(C6CC6)cc(F)c5c4=O)c3CO)nc(N)nc2[nH]1` [Example 7, 2-[3-(2-amino-6-methyl-7H-pyrrolo[2,3-d]pyrimidin-4-yl)-2-(hydroxymethyl)phenyl]-6-cyclopropyl-8-fluoroisoquinolin-1(2H)-one], the IC50 was under 10 nM.
For the molecule `Nc1nc(-c2cccc(-n3ccc4cc(C5CC5)cc(F)c4c3=O)c2CO)c2nc(C3CC3)[nH]c2n1` [Example 12, 2-[3-(2-amino-8-cyclopropyl-9H-purin-6-yl)-2-(hydroxymethyl)phenyl]-6-cyclopropyl-8-fluoroisoquinolin-1(2H)-one], the IC50 is under 10 nM.
The same measure, in the same setting: then `COc1ccc(-c2n[nH]c3nc(N)nc(-c4cccc(-n5ccc6cc(C7CC7)cc(F)c6c5=O)c4CO)c23)cc1` [Example 20, 2-{3-[6-amino-3-(4-methoxyphenyl)-1H-pyrazolo[3,4-d]pyrimidin-4-yl]-2-(hydroxymethyl)phenyl}-6-cyclopropyl-8-fluoroisoquinolin-1(2H)-one], with under 10 nM; and `Nc1nc(-c2cccc(-n3ccc4cc(C5CC5)cc(F)c4c3=O)c2CO)c2cc(-c3ccncc3)[nH]c2n1` [Example 19, 2-{3-[2-amino-6-(pyridin-4-yl)-7H-pyrrolo[2,3-d]pyrimidin-4-yl]-2-(hydroxymethyl)phenyl}-6-cyclopropyl-8-fluoroisoquinolin-1(2H)-one], with under 10 nM.
`Nc1nc(-c2cccc(-n3ccc4cc(C5CC5)cc(F)c4c3=O)c2CO)c2cc(CO)[nH]c2n1` [Example 11, 2-{3-[2-amino-6-(hydroxymethyl)-7H-pyrrolo[2,3-d]pyrimidin-4-yl]-2-(hydroxymethyl)phenyl}-6-cyclopropyl-8-fluoroisoquinolin-1(2H)-one]: the IC50 lay in the range of 10 to 100 nM.
Take `COc1ccccc1-c1n[nH]c2nc(N)nc(-c3cccc(-n4ccc5cc(C6CC6)cc(F)c5c4=O)c3CO)c12` [Example 21, 2-{3-[6-amino-3-(2-methoxyphenyl)-1H-pyrazolo[3,4-d]pyrimidin-4-yl]-2-(hydroxymethyl)phenyl}-6-cyclopropyl-8-fluoroisoquinolin-1(2H)-one]: the IC50 was under 10 nM.
In the case of `C=CC(=O)NCc1cc2c(-c3cccc(-n4ccc5cc(C6CC6)cc(F)c5c4=O)c3CO)nc(N)nc2[nH]1` [Example 30, N-({2-amino-4-[3-(6-cyclopropyl-8-fluoro-1-oxoisoquinolin-2(1H)-yl)-2-(hydroxymethyl)phenyl]-7H-pyrrolo[2,3-d]pyrimidin-6-yl}methyl)acrylamide], the IC50 was in the range of 10 to 100 nM.
For the molecule `Nc1nc(-c2cccc(-n3ccc4cc(C5CC5)cc(F)c4c3=O)c2CO)c2cc[nH]c2n1` [Example 6, 2-[3-(2-amino-7H-pyrrolo[2,3-d]pyrimidin-4-yl)-2-(hydroxymethyl)phenyl]-6-cyclopropyl-8-fluoroisoquinolin-1(2H)-one], the IC50 is under 10 nM.
With `Nc1nc(-c2cccc(-n3ccc4cc(C5CC5)cc(F)c4c3=O)c2CO)c2cc(C3CC3)[nH]c2n1` [Example 9, 2-[3-(2-amino-6-cyclopropyl-7H-pyrrolo[2,3-d]pyrimidin-4-yl)-2-(hydroxymethyl)phenyl]-6-cyclopropyl-8-fluoroisoquinolin-1(2H)-one], the IC50 is under 10 nM.

Another assay concerns OCI-Ly10 cells. In words: Proliferation-Inhibitory Test Against Diffuse Large-Cell B-Cell Lymphoma OCI-Ly10 Strain. The class given is cell-based. To be noted: Homo sapiens, 96 hours, alamarBlue. The method, then: OCI-Ly10 cells were cultured in IMDM medium (Iscove's Modified Dulbecco's Medium, Manufactured by Thermo Fisher Scientific Inc., hereinafter “medium”) containing 20% Fetal bovine serum and 1% penicillin-streptomycin (Nacalai Tesque, Inc.) in a 5% CO2 incubator. OCI-Ly10 cells were seeded to 96-well plate (20000 cells/well), compounds diluted with medium were added with final concentrations of 0.9 nM to 30000 nM (Final DMSO concentration, 0.3%), incubated for 96 hours and alamorBlue reagent (Thermo Fisher Scientific Inc.) was added.
A general note: Alamar Blue is a resazurin reagent that responds to reducing activity.
Regarding `Nc1nc(-c2cccc(-n3ccc4cc(C5CC5)cc(F)c4c3=O)c2CO)c2cc(-c3ccc(CN4CCSC4)cc3)[nH]c2n1` [Example 67, 2-(3-{2-amino-6-[4-(thiazolidin-3-ylmethyl)phenyl]-7H-pyrrolo[2,3-d]pyrimidin-4-yl)-2-(hydroxymethyl)phenyl}-6-cyclopropyl-8-fluoroisoquinolin-1(2H)-one], the IC50 worked out at 82 nM.
`Nc1nc(-c2cccc(-n3ccc4cc(C5CC5)cc(F)c4c3=O)c2CO)c2cc(-c3ccc(CN4CCC(O)CC4)cc3)[nH]c2n1` [Example 73, 2-[3-(2-amino-6-{4-[(4-hydroxypiperidin-1-yl)methyl)phenyl}-7H-pyrrolo[2,3-d]pyrimidin-4-yl)-2-(hydroxymethyl)phenyl]-6-cyclopropyl-8-fluoroisoquinolin-1(2H)-one] displayed an IC50 of 11 nM.
Regarding `CC(C)S(=O)(=O)N1CC=C(c2cc3c(-c4cccc(-n5ccc6cc(C7CC7)cc(F)c6c5=O)c4CO)nc(N)nc3[nH]2)CC1` [Example 90, 2-(3-{2-amino-6-[1-(isopropylsulfonyl)-1,2,3,6-tetrahydropyridin-4-yl]-7H-pyrrolo[2,3-d]pyrimidin-4-yl}-2-(hydroxymethyl)phenyl)-6-cyclopropyl-8-fluoroisoquinolin-1(2H)-one], the IC50 is 13 nM.
In the case of `CNc1ccc(-c2cc3c(-c4cccc(-n5ccc6cc(C7CC7)cc(F)c6c5=O)c4CO)nc(N)nc3[nH]2)cn1` [Example 47, 2-(3-{2-amino-6-[6-(methylamino)pyridin-3-yl]-7H-pyrrolo[2,3-d]pyrimidin-4-yl}-2-(hydroxymethyl)phenyl)-6-cyclopropyl-8-fluoroisoquinolin-1(2H)-one], the IC50 was 204 nM.
`CC1(C)CCCN(Cc2ccc(-c3cc4c(-c5cccc(-n6ccc7cc(C8CC8)cc(F)c7c6=O)c5CO)nc(N)nc4[nH]3)cc2)C1` [Example 80, 2-[3-(2-amino-6-{4-[(3,3-dimethylpiperidin-1-yl)methyl]phenyl}-7H-pyrrolo[2,3-d]pyrimidin-4-yl)-2-(hydroxymethyl)phenyl]-6-cyclopropyl-8-fluoroisoquinolin-1(2H)-one] came in with an IC50 of 70 nM.
On the same count and under the same terms, under `CC(=O)N1CCN(Cc2ccc(-c3cc4c(-c5cccc(-n6ccc7cc(C8CC8)cc(F)c7c6=O)c5CO)nc(N)nc4[nH]3)cc2)CC1` [Example 75, 2-[3-(6-{4-[(4-acetylpiperazin-1-yl)methyl]phenyl}-2-amino-7H-pyrrolo[2,3-d]pyrimidin-4-yl)-2-(hydroxymethyl)phenyl]-6-cyclopropyl-8-fluoroisoquinolin-1(2H)-one] stands 10 nM; under `Nc1nc(-c2cccc(-n3ccc4cc(C5CC5)cc(F)c4c3=O)c2CO)c2cc(-c3ccc(CN4CCC(F)(F)CC4)cc3)[nH]c2n1` [Example 77, 2-[3-(2-amino-6-{4-[(4,4-difluoropiperidin-1-yl)methyl]phenyl}-7H-pyrrolo[2,3-d]pyrimidin-4-yl)-2-(hydroxymethyl)phenyl]-6-cyclopropyl-8-fluoroisoquinolin-1(2H)-one], 62 nM; under `COc1cc(-c2cc3c(-c4cccc(-n5ccc6cc(C7CC7)cc(F)c6c5=O)c4CO)nc(N)nc3[nH]2)ccn1` [Example 49, 2-{3-[2-amino-6-(2-methoxypyridin-4-yl)-7H-pyrrolo[2,3-d]pyrimidin-4-yl]-2-(hydroxymethyl)phenyl}-6-cyclopropyl-8-fluoroisoquinolin-1(2H)-one], 88 nM.
